Row | melting point | Structure (SMILES)
1 | 245 to 246 °C | CCC(=O)N1CC[C@H](NC(=O)Nc2ccc(OC(F)(F)F)cc2)[C@H](F)C1 [Example 46, 1-((3R,4S)-3-fluoro-1-propionylpiperidin-4-yl)-3-(4-(trifluoromethoxy)phenyl)urea]
2 | 180 to 181 °C | CCC(=O)N1CC[C@H](NC(=O)Nc2ccc(OC(F)(F)F)cc2)[C@@H](F)C1 [Example 47, 1-((3S,4S)-3-fluoro-1-propionylpiperidin-4-yl)-3-(4-(trifluoromethoxy)phenyl)urea]

Further lines, the molecule ahead of its results:

Row | Structure (SMILES) | melting point
3 | CCC(=O)N1CC[C@H](NC(=O)Nc2ccc(OC(F)(F)F)cc2)C[C@H]1C [Example 48, 1-((2R,4S)-2-methyl-1-propionylpiperidin-4-yl)-3-(4-(trifluoromethoxy)phenyl)urea] | 175 to 176 °C
4 | CCC(=O)NCC1CCN(C(=O)Nc2ccc(OC(F)(F)F)cc2)C1 (stereo not drawn) [Example 12, 3-(propanamidomethyl)-N-[4-(trifluoromethoxy)phenyl]pyrrolidine-1-carboxamide] | 166 to 167 °C
5 | CCC(=O)N1CC[C@@H](NC(=O)Nc2ccc(OC(F)(F)F)cc2)[C@@H](F)C1 [Example 45, 1-((3S,4R)-3-fluoro-1-propionylpiperidin-4-yl)-3-(4-(trifluoromethoxy)phenyl)urea] | 231 to 232 °C
6 | CCC(=O)N1CCC(NC(=O)Nc2ccc(OC(F)(F)F)cc2)C(F)(F)C1 (stereo not drawn) [Example 44, 1-(3,3-difluoro-1-propionylpiperidin-4-yl)-3-(4-(trifluoromethoxy)phenyl)urea] | 223 to 224 °C

From patent US20240293362A1, “Soluble Epoxide Hydrolase Inhibitors and Use Thereof” (Board of Trustees of Michigan State University, priority 2021, published 2024)
